Test system: 958667-338-R-J2-PDC tumor spheroids viability
Experiment: Anticancer human tumor 958667-338-R-J2-PDC patient-derived colon adenocarcinoma cell line growth inhibition [PI3K]
Conditions: spheroids with HUVEC and MSC; for IC50: curve of first compound; for viability, T/C: stronger effect = lower value
Summary of the method: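 Viability of mixed-cell spheroids was determined after exposure to pairwise combinations, one partner being inavolisib, alpelisib, duvelisib or copanlisib. Highest tested concentration matched clinical Cmax where known and 10 microM where not, descending in half-log steps.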
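Also: spheroids exposed to compounds for seven days before readout.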

Cn1ncnc1[C@H]1c2n[nH]c(=O)c3cc(F)cc(c23)N[C@@H]1c1ccc(F)cc1 + Cc1nc(NC(=O)N2CCCC2C(N)=O)sc1-c1ccnc(C(C)(C)C(F)(F)F)c1
IC50 (second compound 0.0316 µM): > 100 nM
IC50 (second compound 0.1 µM): > 100 nM
IC50 (second compound 0.316 µM): > 100 nM
IC50 (second compound 1 µM): > 100 nM
IC50 (second compound 3.16 µM): > 100 nM
IC50 (second compound 10 µM): > 100 nM
viability, T/C (second compound 0.0316 µM, first compound 0.000316 µM): 98.7%
viability, T/C (second compound 0.0316 µM, first compound 0.001 µM): 92%
viability, T/C (second compound 0.0316 µM, first compound 0.00316 µM): 113%
viability, T/C (second compound 0.0316 µM, first compound 0.01 µM): 106%
viability, T/C (second compound 0.0316 µM, first compound 0.0316 µM): 94.5%
viability, T/C (second compound 0.0316 µM, first compound 0.1 µM): 107%
viability, T/C (second compound 0.1 µM, first compound 0.000316 µM): 98%
viability, T/C (second compound 0.1 µM, first compound 0.001 µM): 96.7%
viability, T/C (second compound 0.1 µM, first compound 0.00316 µM): 83.2%
viability, T/C (second compound 0.1 µM, first compound 0.01 µM): 101%
viability, T/C (second compound 0.1 µM, first compound 0.0316 µM): 91.7%
viability, T/C (second compound 0.1 µM, first compound 0.1 µM): 93%
viability, T/C (second compound 0.316 µM, first compound 0.000316 µM): 81.4%
viability, T/C (second compound 0.316 µM, first compound 0.001 µM): 109%
viability, T/C (second compound 0.316 µM, first compound 0.00316 µM): 82.4%
viability, T/C (second compound 0.316 µM, first compound 0.01 µM): 102%
viability, T/C (second compound 0.316 µM, first compound 0.0316 µM): 87%
viability, T/C (second compound 0.316 µM, first compound 0.1 µM): 71.2%
viability, T/C (second compound 1 µM, first compound 0.000316 µM): 83.2%
viability, T/C (second compound 1 µM, first compound 0.001 µM): 86.4%
viability, T/C (second compound 1 µM, first compound 0.00316 µM): 101%
viability, T/C (second compound 1 µM, first compound 0.01 µM): 82.6%
viability, T/C (second compound 1 µM, first compound 0.0316 µM): 78.4%
viability, T/C (second compound 1 µM, first compound 0.1 µM): 79.5%
viability, T/C (second compound 3.16 µM, first compound 0.000316 µM): 78.4%
viability, T/C (second compound 3.16 µM, first compound 0.001 µM): 78.7%
viability, T/C (second compound 3.16 µM, first compound 0.00316 µM): 85.8%
viability, T/C (second compound 3.16 µM, first compound 0.01 µM): 72.5%
viability, T/C (second compound 3.16 µM, first compound 0.0316 µM): 82.8%
viability, T/C (second compound 3.16 µM, first compound 0.1 µM): 91.3%
viability, T/C (second compound 10 µM, first compound 0.000316 µM): 57.9%
viability, T/C (second compound 10 µM, first compound 0.001 µM): 64.8%
viability, T/C (second compound 10 µM, first compound 0.00316 µM): 73.3%
viability, T/C (second compound 10 µM, first compound 0.01 µM): 60.8%
viability, T/C (second compound 10 µM, first compound 0.0316 µM): 72.7%
viability, T/C (second compound 10 µM, first compound 0.1 µM): 60.8%

Cn1cnc2c(F)c(Nc3ccc(Br)cc3Cl)c(C(=O)NOCCO)cc21 + Cc1nc(NC(=O)N2CCCC2C(N)=O)sc1-c1ccnc(C(C)(C)C(F)(F)F)c1
IC50 (second compound 0.0316 µM): 413 nM
IC50 (second compound 0.1 µM): 328 nM
IC50 (second compound 0.316 µM): 108 nM
IC50 (second compound 1 µM): 58.5 nM
IC50 (second compound 3.16 µM): 66 nM
IC50 (second compound 10 µM): 14.2 nM
viability, T/C (second compound 0.0316 µM, first compound 0.00949 µM): 99.2%
viability, T/C (second compound 0.0316 µM, first compound 0.03 µM): 81.9%
viability, T/C (second compound 0.0316 µM, first compound 0.0949 µM): 73.6%
viability, T/C (second compound 0.0316 µM, first compound 0.3 µM): 56.9%
viability, T/C (second compound 0.0316 µM, first compound 0.949 µM): 35.1%
viability, T/C (second compound 0.0316 µM, first compound 3 µM): 15.8%
viability, T/C (second compound 0.1 µM, first compound 0.00949 µM): 96.1%
viability, T/C (second compound 0.1 µM, first compound 0.03 µM): 95.3%
viability, T/C (second compound 0.1 µM, first compound 0.0949 µM): 60.3%
viability, T/C (second compound 0.1 µM, first compound 0.3 µM): 52.3%
viability, T/C (second compound 0.1 µM, first compound 0.949 µM): 36.4%
viability, T/C (second compound 0.1 µM, first compound 3 µM): 12.7%
viability, T/C (second compound 0.316 µM, first compound 0.00949 µM): 94.8%
viability, T/C (second compound 0.316 µM, first compound 0.03 µM): 69%
viability, T/C (second compound 0.316 µM, first compound 0.0949 µM): 52.7%
viability, T/C (second compound 0.316 µM, first compound 0.3 µM): 35.5%
viability, T/C (second compound 0.316 µM, first compound 0.949 µM): 21.9%
viability, T/C (second compound 0.316 µM, first compound 3 µM): 11.9%
viability, T/C (second compound 1 µM, first compound 0.00949 µM): 80%
viability, T/C (second compound 1 µM, first compound 0.03 µM): 63%
viability, T/C (second compound 1 µM, first compound 0.0949 µM): 40.3%
viability, T/C (second compound 1 µM, first compound 0.3 µM): 24%
viability, T/C (second compound 1 µM, first compound 0.949 µM): 14.7%
viability, T/C (second compound 1 µM, first compound 3 µM): 7.55%
viability, T/C (second compound 3.16 µM, first compound 0.00949 µM): 50.3%
viability, T/C (second compound 3.16 µM, first compound 0.03 µM): 63.5%
viability, T/C (second compound 3.16 µM, first compound 0.0949 µM): 46.2%
viability, T/C (second compound 3.16 µM, first compound 0.3 µM): 16.4%
viability, T/C (second compound 3.16 µM, first compound 0.949 µM): 11%
viability, T/C (second compound 3.16 µM, first compound 3 µM): 3.01%
viability, T/C (second compound 10 µM, first compound 0.00949 µM): 56.8%
viability, T/C (second compound 10 µM, first compound 0.03 µM): 37.7%
viability, T/C (second compound 10 µM, first compound 0.0949 µM): 12.8%
viability, T/C (second compound 10 µM, first compound 0.3 µM): 9.46%
viability, T/C (second compound 10 µM, first compound 0.949 µM): 5.65%
viability, T/C (second compound 10 µM, first compound 3 µM): 1.13%

— PubChem BioAssay AID1963963 (Molecular Pharmacology Branch, DTP, NCI, 2024)
